This is an account of results in ChEMBL document CHEMBL5113478, “7-Azaindole, 2,7-diazaindole, and 1H-pyrazole as core structures for novel anticancer agents with potential chemosensitizing properties” (Eur J Med Chem, 2022).

Common to all, as to type: functional
The test system of assay [1] is MOLT-4. Briefly: Antiproliferative activity against human MOLT-4 cells assessed as […] cell proliferation at 10 uM incubated for 48 hrs by WST-1 assay relative to control.
In assay [2] the test system is MOLT-4. Briefly: Antiproliferative activity against human MOLT-4 cells assessed as […] cell proliferation at 10 uM incubated for 48 hrs in presence of 2 uM of CDDP by WST-1 assay relative to control. In general terms: Formazan colour is commonly taken as a measure of viable cells.
Assay [3] has as its system Jurkat. Briefly: Antiproliferative activity against human Jurkat cells assessed as […] cell proliferation at 10 uM incubated for 48 hrs by WST-1 assay relative to control.
Assay [4] relates to Jurkat. Briefly: Antiproliferative activity against human Jurkat cells assessed as […] cell proliferation at 10 uM incubated for 48 hrs in presence of 2 uM of CDDP by WST-1 assay relative to control.
The test system of assay [5] is A2780. Briefly: Antiproliferative activity against human A2780 cells assessed as […] cell proliferation at 10 uM incubated for 48 hrs by WST-1 assay relative to control.
Assay [6] has as its system A2780. Briefly: Antiproliferative activity against human A2780 cells assessed as […] cell proliferation at 10 uM incubated for 48 hrs in presence of 2 uM of CDDP by WST-1 assay relative to control.
Assay [7] has as its system MCF7. Briefly: Antiproliferative activity against human MCF7 cells assessed as […] cell proliferation at 10 uM incubated for 48 hrs by WST-1 assay relative to control.
Assay [8] has as its system MCF7. Briefly: Antiproliferative activity against human MCF7 cells assessed as […] cell proliferation at 10 uM incubated for 48 hrs in presence of 10 uM of CDDP by WST-1 assay relative to control.
Assay [9] deals with A549. Briefly: Antiproliferative activity against human A549 cells assessed as […] cell proliferation at 10 uM incubated for 48 hrs by WST-1 assay relative to control.
Assay [10] relates to A549. Briefly: Antiproliferative activity against human A549 cells assessed as […] cell proliferation at 10 uM incubated for 48 hrs in presence of 15 uM of CDDP by WST-1 assay relative to control.
Assay [11] has as its system SAOS-2. Briefly: Antiproliferative activity against human SAOS-2 cells assessed as […] cell proliferation at 10 uM incubated for 48 hrs by WST-1 assay relative to control.
In assay [12] the test system is SAOS-2. Briefly: Antiproliferative activity against human SAOS-2 cells assessed as […] cell proliferation at 10 uM incubated for 48 hrs in presence of 15 uM of CDDP by WST-1 assay relative to control.
Assay [13] has as its system PANC-1. Briefly: Antiproliferative activity against human PANC-1 cells assessed as […] cell proliferation at 10 uM incubated for 48 hrs by WST-1 assay relative to control.
Assay [14] concerns PANC-1. Briefly: Antiproliferative activity against human PANC-1 cells assessed as […] cell proliferation at 10 uM incubated for 48 hrs in presence of 15 uM of CDDP by WST-1 assay relative to control.
The subject of assay [15] is HT-29. Briefly: Antiproliferative activity against human HT-29 cells assessed as […] cell proliferation at 10 uM incubated for 48 hrs by WST-1 assay relative to control.
In assay [16] the test system is HT-29. Briefly: Antiproliferative activity against human HT-29 cells assessed as […] cell proliferation at 10 uM incubated for 48 hrs in presence of 15 uM of CDDP by WST-1 assay relative to control.
The subject of assay [17] is HeLa. Briefly: Antiproliferative activity against human HeLa cells assessed as […] cell proliferation at 10 uM incubated for 48 hrs by WST-1 assay relative to control.
The subject of assay [18] is HeLa. Briefly: Antiproliferative activity against human HeLa cells assessed as […] cell proliferation at 10 uM incubated for 48 hrs in presence of 15 uM of CDDP by WST-1 assay relative to control.

For the compound `CC(C)S(=O)(=O)c1ccc(-c2cc(-c3nc(-c4ccccc4)no3)n[nH]2)cc1`, the Activity in the assay on MOLT-4 [1] is on record as 101%; with MOLT-4 [2], 62%; in the assay on Jurkat [3] it was 101%; in the assay on Jurkat [4], 62%; in the assay with A2780 [5], 101%; with A2780 [6], 62%. For the same compound, the Activity was found to be 101% with MCF7 [7]; 62% with MCF7 [8]; 101% in the assay on A549 [9]; 62% with A549 [10]; 101% with SAOS-2 [11]; 62% with SAOS-2 [12]. Further, the Activity turned out to be 101% in the assay on PANC-1 [13]; 62% in the assay on PANC-1 [14]; 62% with HT-29 [16]; 101% in the assay on HeLa [17]; 62% with HeLa [18]. Moreover, the “Cell viability relative to control” value with HT-29 [15] was determined as 101%.

For `CC(C)S(=O)(=O)c1ccc(-c2cnc3[nH]c(C(=O)NCc4ccccc4)cc3c2)cc1`, the Activity in the assay with MOLT-4 [1] was found to be 100%; in the assay on MOLT-4 [2], 61%; in the assay on Jurkat [3], 100%; in the assay with Jurkat [4], 61%; in the assay on A2780 [5], 100%; with A2780 [6], 61%. Besides, the Activity amounted to 100% in the assay with MCF7 [7]; 61% in the assay on MCF7 [8]; 100% in the assay on A549 [9]; 61% with A549 [10]; 100% with SAOS-2 [11]; 61% in the assay with SAOS-2 [12]. Moreover, the Activity was 100% with PANC-1 [13]; 61% in the assay with PANC-1 [14]; 61% in the assay on HT-29 [16]; 100% in the assay with HeLa [17]; 61% with HeLa [18]. For the same compound, in the assay with HT-29 [15], the “Cell viability relative to control” value is given as 100%.

For `CC(C)S(=O)(=O)c1ccc(-c2cc(-c3nnc(-c4ccccc4)o3)n[nH]2)cc1`, the Activity was 98% in the assay on MOLT-4 [1]; 64% in the assay on MOLT-4 [2]; 98% with Jurkat [3]; 64% in the assay on Jurkat [4]; 98% with A2780 [5]; 64% in the assay on A2780 [6]. Also, the Activity amounted to 98% in the assay with MCF7 [7]; 64% in the assay with MCF7 [8]; 98% with A549 [9]; 64% with A549 [10]; 98% in the assay with SAOS-2 [11]; 64% in the assay with SAOS-2 [12]. Besides, the Activity in the assay on PANC-1 [13] is given as 98%; in the assay with PANC-1 [14] it was 64%; in the assay with HT-29 [16] it was 64%; in the assay with HeLa [17], 98%; in the assay with HeLa [18], 64%. Also, the “Cell viability relative to control” value with HT-29 [15] was 98%.

As for `CCN1CCN(C(=O)c2cc3cc(-c4ccc(S(C)(=O)=O)cc4)cnc3[nH]2)CC1`, the Activity amounted to 90% in the assay on MOLT-4 [1]; 58% in the assay with MOLT-4 [2]; 90% in the assay on Jurkat [3]; 58% in the assay with Jurkat [4]; 90% in the assay with A2780 [5]; 58% with A2780 [6]. For the same compound, the Activity with MCF7 [7] was found to be 90%; in the assay with MCF7 [8] it was 58%; with A549 [9], 90%; in the assay with A549 [10], 58%; in the assay on SAOS-2 [11], 90%; in the assay with SAOS-2 [12] it was 58%. For the same compound, the Activity with PANC-1 [13] was determined as 90%; with PANC-1 [14], 58%; in the assay with HT-29 [16], 58%; in the assay with HeLa [17], 90%; in the assay with HeLa [18], 58%. Besides, in the assay on HT-29 [15], the “Cell viability relative to control” value worked out at 90%.

For `CS(=O)(=O)c1ccc(-c2cc(C(=O)NCc3ccccc3)n[nH]2)cc1`, the Activity in the assay with MOLT-4 [1] was 95%; with MOLT-4 [2] it was 63%; in the assay with Jurkat [3] it was 95%; with Jurkat [4] it was 63%; in the assay with A2780 [5], 95%; in the assay on A2780 [6] it was 63%. Further, the Activity in the assay with MCF7 [7] is recorded as 95%; in the assay on MCF7 [8], 63%; in the assay with A549 [9], 95%; in the assay with A549 [10], 63%; in the assay on SAOS-2 [11], 95%; in the assay with SAOS-2 [12] it was 63%. Moreover, the Activity in the assay on PANC-1 [13] was 95%; in the assay with PANC-1 [14] it was 63%; with HT-29 [16], 63%; with HeLa [17], 95%; in the assay with HeLa [18], 63%. Moreover, the “Cell viability relative to control” value in the assay on HT-29 [15] is 95%.

Regarding `CC(C)S(=O)(=O)c1ccc(-c2cnc3[nH]cc(C(=O)N4CCc5ccccc5C4)c3c2)cc1`, the Activity with MOLT-4 [1] was found to be 85%; with MOLT-4 [2], 66%; in the assay with Jurkat [3], 85%; in the assay with Jurkat [4], 66%; in the assay with A2780 [5], 85%; in the assay with A2780 [6], 66%. For the same compound, the Activity is recorded as 85% in the assay on MCF7 [7]; 66% with MCF7 [8]; 85% with A549 [9]; 66% in the assay with A549 [10]; 85% in the assay on SAOS-2 [11]; 66% in the assay on SAOS-2 [12]. The Activity in the assay with PANC-1 [13] is 85%; in the assay with PANC-1 [14], 66%; in the assay on HT-29 [16] it was 66%; in the assay on HeLa [17], 85%; in the assay on HeLa [18], 66%. Besides, the “Cell viability relative to control” value with HT-29 [15] is recorded as 85%.

Consider `CCN1CCN(Cc2c[nH]c3ncc(-c4ccc(S(=O)(=O)C(C)C)cc4)cc23)CC1`, for which the Activity in the assay with MOLT-4 [1] worked out at 97%; in the assay on MOLT-4 [2] it was 65%; in the assay with Jurkat [3], 97%; in the assay on Jurkat [4], 65%; in the assay on A2780 [5], 97%; in the assay on A2780 [6], 65%. Moreover, the Activity with MCF7 [7] was determined as 97%; with MCF7 [8], 65%; in the assay on A549 [9], 97%; in the assay on A549 [10] it was 65%; in the assay with SAOS-2 [11], 97%; in the assay on SAOS-2 [12] it was 65%. Further, the Activity in the assay on PANC-1 [13] stood at 97%; with PANC-1 [14] it was 65%; with HT-29 [16], 65%; in the assay with HeLa [17], 97%; in the assay with HeLa [18] it was 65%. Further, in the assay with HT-29 [15], the “Cell viability relative to control” value is given as 97%.

As for `CCN(CC)c1ccc(CNC(=O)c2cc(-c3ccc(S(=O)(=O)C(C)C)cc3)[nH]n2)cc1`, the Activity in the assay with MOLT-4 [1] is 78%; in the assay with MOLT-4 [2] it was 62%; in the assay with Jurkat [3], 78%; in the assay with Jurkat [4], 62%; in the assay with A2780 [5], 78%; in the assay with A2780 [6], 62%. Also, the Activity in the assay on MCF7 [7] was 78%; in the assay on MCF7 [8], 62%; in the assay on A549 [9], 78%; in the assay on A549 [10] it was 62%; with SAOS-2 [11] it was 78%; in the assay on SAOS-2 [12] it was 62%. For the same compound, the Activity in the assay with PANC-1 [13] turned out to be 78%; in the assay with PANC-1 [14], 62%; in the assay with HT-29 [16], 62%; in the assay with HeLa [17], 78%; in the assay with HeLa [18], 62%. For the same compound, the “Cell viability relative to control” value with HT-29 [15] was 78%.

`CCN(CC)c1ccc(CNC(=O)c2cc3cc(-c4ccc(S(=O)(=O)C(C)C)cc4)cnc3[nH]2)cc1`: the Activity with MOLT-4 [1] was 95%; with MOLT-4 [2] it was 57%; in the assay on Jurkat [3], 95%; in the assay with Jurkat [4], 57%; in the assay with A2780 [5], 95%; in the assay with A2780 [6], 57%. For the same compound, the Activity with MCF7 [7] is 95%; with MCF7 [8] it was 57%; in the assay on A549 [9] it was 95%; in the assay on A549 [10], 57%; in the assay with SAOS-2 [11], 95%; in the assay on SAOS-2 [12] it was 57%. The Activity with PANC-1 [13] is reported as 95%; in the assay on PANC-1 [14], 57%; in the assay with HT-29 [16], 57%; in the assay on HeLa [17] it was 95%; in the assay with HeLa [18] it was 57%. In addition, the “Cell viability relative to control” value in the assay on HT-29 [15] amounted to 95%.
